In publication PMC4133868 (BMB Reports, 2013):

What was measured:
f-bCblC [1] = molecular target: T1, f-bCblC (Bos taurus, UniProt Q5E9C8); experiment: biochemical
T1 sequence (Q5E9C8 1-280): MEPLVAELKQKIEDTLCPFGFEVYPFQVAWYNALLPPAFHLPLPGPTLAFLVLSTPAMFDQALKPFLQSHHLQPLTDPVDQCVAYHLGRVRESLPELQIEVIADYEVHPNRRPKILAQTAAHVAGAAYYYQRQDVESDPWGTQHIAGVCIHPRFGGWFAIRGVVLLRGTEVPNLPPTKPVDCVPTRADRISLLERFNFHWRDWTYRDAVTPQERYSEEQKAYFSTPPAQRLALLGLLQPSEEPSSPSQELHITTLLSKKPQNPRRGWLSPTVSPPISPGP

f-bCblC [2] = molecular target: T1, f-bCblC
t-bCblC [3] = molecular target: T2, t-bCblC (Bos taurus, UniProt Q5E9C8)
T2 sequence (Q5E9C8 1-244): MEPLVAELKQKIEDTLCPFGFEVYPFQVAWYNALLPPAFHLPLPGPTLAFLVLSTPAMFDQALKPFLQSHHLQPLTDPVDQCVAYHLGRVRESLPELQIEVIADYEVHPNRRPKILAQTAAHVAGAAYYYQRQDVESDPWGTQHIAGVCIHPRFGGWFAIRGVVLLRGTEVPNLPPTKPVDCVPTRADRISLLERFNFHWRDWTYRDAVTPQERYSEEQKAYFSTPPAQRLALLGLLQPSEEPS

t-bCblC [4] = molecular target: T2, t-bCblC; experiment: Isothermal titration calorimetry; type: binding, bovine
f-bCblC [5] = molecular target: T1, f-bCblC; conditions: read-out: Kd of GSH for f-bCblC (ITC); cited from earlier work
t-bCblC [6] = molecular target: T2, t-bCblC; experiment: biochemical
[7] = hyperbolic fit of ΔTm vs GSH concentration

- AC50 (f-bCblC [1]): 3100 ± 300 µM
- melting temperature Tm of f-bCblC in the presence of GSH (f-bCblC [2]; 10 mM GSH, Tm without GSH 42.1 ± 0.4℃): 44.2 ± 0.3 °C
- maximal ΔTm (ΔTm max) of f-bCblC (f-bCblC [2]; [7]): 2.8 ± 0.3 °C
- melting temperature Tm of t-bCblC in the presence of GSH (t-bCblC [3]; 10 mM GSH, Tm without GSH 41.5 ± 0.3℃): 45.2 ± 0.3 °C
- maximal ΔTm (ΔTm max) of t-bCblC (t-bCblC [3]; [7]): 5.2 ± 0.2 °C
- Kd (t-bCblC [4]): 206 ± 35 µM
- AC50 (t-bCblC [6]): 2800 ± 300 µM
SMILES: N[C@@H](CCC(=O)N[C@@H](CS)C(=O)NCC(=O)O)C(=O)O [GSH, glutathione]
- Kd (f-bCblC [5]): 355 ± 40 µM
